Assay results: patent publication US11779613B2, “Compositions comprising a bacterial strain of the genus Megasphera and uses thereof” (CJ BIOSCIENCE, INC., priority 2017, dated 2023)

Assays:
[1] = tested on: SH-SY5Y neuroblastoma cells; assay: Cell viability / neuroprotection of SH-SY5Y neuroblastoma cells with or without MPP (CCK-8); assay type: cell-based, human; details: compared to YCFA-MPP+ treated sample, FIG. 15
Description: SH-SY5Y neuroblastoma cells were purchased from ECCACC (Cat. no: 94030304) and were grown in MEM (Sigma Aldrich, cat n. M2279) supplemented with Nutrient Mixture F-12 Ham (Sigma Aldrich, cat n. N4888).
Once grown the SH-SY5Y neuroblastoma cells were plated on 96-well plate at 11,000 cells/well and incubated for 2 days. The cells were then transferred to differentiation medium (which contains FBS at 1%) and 10 uM retinoic acid (Sigma Aldrich, cat. n. R2625-100MG). Differentiation medium was replaced every other day and cells were harvested at 7 day of differentiation. Cells were pre-treated with or without MPP (Sigma Aldrich, cat. n. D048-1G) for 8 hours. Subsequently, cells were treated with 10% bacterial supernatant and incubated overnight. Cell viability was measured by using CCK-8 reagent (Sigma Aldrich, Cell Counting Kit—8, cat. n. 96992-3000TESTS-F) and read at 450 nm wavelength.
RA-differentiated SHSY-5Y cells were treated with MPP+, the active metabolite of MPTP, a chemical widely used to mimic in vitro and in vivo some of the features of PD pathology. Cell viability was measured as the rate of mitochondria respiration (FIG. 15).

histone deacetylase [2] = assay: Histone deacetylase activity in HT-29 whole cells; assay type: cell-based; details: for total HDAC activity, pure substances: different concentrations, whole HT-29 cells and HT-29 cell lysate, FIG. 16B
Description: The cell line HT-29 was used because histone deacetylase is present.
Cell free supernatants of stationary phase bacterial cultures were isolated by centrifugation and filtering in a 0.22 uM filter. HT-29 cells were used 3 days' post confluence and stepped down in 1 mL DTS 24 hours prior to commencement of the experiment. The HT-29 cells were challenged with 10% cell free supernatant diluted in DTS and was is left to incubate for 48 hours. […] extraction kit and samples were snap frozen prior to HDAC activity measurement. HDAC activity was assessed fluorometrically using the Sigma Aldrich (UK) kit.
(§1) Pure cultures of bacteria were grown anaerobically in YCFA broth until they reached their stationary growth phase. Cultures were centrifuged at 5,000×g for 5 minutes and the cell-free supernatant (CFS) was filtered using a […] (Millipore, UK). 1 mL aliquots of the CFS were stored at −80° C. until use. Sodium butyrate, hexanoic and valeric acid were obtained from Sigma Aldrich (UK) and suspensions were prepared in YCFA broth.
(§2) To investigate which metabolites were responsible for the strain-induced HDAC inhibition, different concentrations of hexanoic acid, valeric acid and sodium butyrate were measured for their HDAC inhibition on whole HT-29 cells and on HT-29 cell lysate.

histone deacetylase [3] = assay: Histone deacetylase activity in HT-29 cell lysate; assay type: biochemical; details: FIG. 16A/16B
Description: as §1, §2

`O=c1c(O)c(-c2ccc(O)c(O)c2)oc2cc(O)cc(O)c12` [quercetin, Quercetin] was tested, and the “protection from MPP+” value [1] was “about 20%”.

In the case of `CCCC(=O)[O-].[Na+]` [sodium butyrate, Sodium butyrate], the “HDAC inhibition, HT29 whole cells” value (histone deacetylase [2]; FIG. 16A/16B) was “significant (P<0.05) inhibition”, the “total HDAC activity, pure substances” value (histone deacetylase [2]) was “significant HDAC inhibition” and the “HDAC inhibition, HT29 cell lysates” value (histone deacetylase [3]) was “significant (P<0.05) inhibition”.

For `CCCCC(=O)O` [valeric acid], the “total HDAC activity, pure substances” value (histone deacetylase [2]) was “significant HDAC inhibition” and the “total HDAC activity, pure substances” value (histone deacetylase [2]; listed as Valeric acid) was “inhibited total HDAC activity”.

In the case of `CCCCCC(=O)O` [hexanoic acid], the “total HDAC activity, pure substances” value (histone deacetylase [2]) was “did not show significant inhibitory activity”.
